Results taken from patent EP1184374A1, “Carboxamide derivatives of pyrrolidine, piperidine and hexahydroazepine for the treatment of thrombosis disorders” (ORTHO PHARMACEUTICAL CORPORATION, priority 1996, dated 1997).
Where “and” joins values, the source holds several entries; their conditions need not be identical. Identical values can stand only once.

What was measured:
platelet aggregation = conditions: L. Alig, J. Med. Chem. 1992, 35, 4393; read-out: IC50 against in vitro thrombin-induced platelet aggregation; cited from earlier work
GPIIb/IIIa = GPIIb/IIIa (Homo sapiens, UniProt P05106+P08514); assay: In vitro solid phase purified glycoprotein IIb/IIIa binding assay (biotinylated fibrinogen binding); conditions: for inhibition at 50 µM: read-out: Fibrinogen Binding % Inh. (50 µM)
GPIIb/IIIa, sequence (P08514 32-887 limits assumed): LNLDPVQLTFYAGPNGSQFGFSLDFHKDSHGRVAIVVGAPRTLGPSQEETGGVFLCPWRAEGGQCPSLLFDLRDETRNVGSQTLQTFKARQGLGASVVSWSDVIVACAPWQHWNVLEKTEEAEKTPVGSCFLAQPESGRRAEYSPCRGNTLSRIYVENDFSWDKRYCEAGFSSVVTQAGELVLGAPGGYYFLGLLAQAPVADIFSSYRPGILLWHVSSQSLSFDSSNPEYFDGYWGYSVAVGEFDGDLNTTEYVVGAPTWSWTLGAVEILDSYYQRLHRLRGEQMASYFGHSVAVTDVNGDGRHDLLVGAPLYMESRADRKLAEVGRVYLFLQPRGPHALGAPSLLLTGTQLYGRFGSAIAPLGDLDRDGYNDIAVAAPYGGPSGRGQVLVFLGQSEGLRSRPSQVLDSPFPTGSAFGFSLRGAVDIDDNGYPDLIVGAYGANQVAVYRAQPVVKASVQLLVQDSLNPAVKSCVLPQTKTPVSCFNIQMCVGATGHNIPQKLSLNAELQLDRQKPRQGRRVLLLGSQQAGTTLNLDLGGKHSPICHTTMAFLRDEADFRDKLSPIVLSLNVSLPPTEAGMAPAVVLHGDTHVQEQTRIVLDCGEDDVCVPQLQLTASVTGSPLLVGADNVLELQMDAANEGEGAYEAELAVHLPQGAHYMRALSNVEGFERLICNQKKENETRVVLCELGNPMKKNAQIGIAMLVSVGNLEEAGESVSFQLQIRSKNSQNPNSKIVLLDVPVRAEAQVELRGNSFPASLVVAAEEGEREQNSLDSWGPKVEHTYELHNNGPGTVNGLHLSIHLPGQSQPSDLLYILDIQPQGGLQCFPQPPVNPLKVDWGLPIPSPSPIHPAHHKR
GPIIb/IIIa, sequence (P08514 891-1039 partner limits assumed): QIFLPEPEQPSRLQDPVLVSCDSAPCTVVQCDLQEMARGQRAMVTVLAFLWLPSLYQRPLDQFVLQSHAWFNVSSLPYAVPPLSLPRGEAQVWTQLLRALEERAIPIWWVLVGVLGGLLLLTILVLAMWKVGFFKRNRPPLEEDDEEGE
GPIIb/IIIa, sequence (P05106 27-788): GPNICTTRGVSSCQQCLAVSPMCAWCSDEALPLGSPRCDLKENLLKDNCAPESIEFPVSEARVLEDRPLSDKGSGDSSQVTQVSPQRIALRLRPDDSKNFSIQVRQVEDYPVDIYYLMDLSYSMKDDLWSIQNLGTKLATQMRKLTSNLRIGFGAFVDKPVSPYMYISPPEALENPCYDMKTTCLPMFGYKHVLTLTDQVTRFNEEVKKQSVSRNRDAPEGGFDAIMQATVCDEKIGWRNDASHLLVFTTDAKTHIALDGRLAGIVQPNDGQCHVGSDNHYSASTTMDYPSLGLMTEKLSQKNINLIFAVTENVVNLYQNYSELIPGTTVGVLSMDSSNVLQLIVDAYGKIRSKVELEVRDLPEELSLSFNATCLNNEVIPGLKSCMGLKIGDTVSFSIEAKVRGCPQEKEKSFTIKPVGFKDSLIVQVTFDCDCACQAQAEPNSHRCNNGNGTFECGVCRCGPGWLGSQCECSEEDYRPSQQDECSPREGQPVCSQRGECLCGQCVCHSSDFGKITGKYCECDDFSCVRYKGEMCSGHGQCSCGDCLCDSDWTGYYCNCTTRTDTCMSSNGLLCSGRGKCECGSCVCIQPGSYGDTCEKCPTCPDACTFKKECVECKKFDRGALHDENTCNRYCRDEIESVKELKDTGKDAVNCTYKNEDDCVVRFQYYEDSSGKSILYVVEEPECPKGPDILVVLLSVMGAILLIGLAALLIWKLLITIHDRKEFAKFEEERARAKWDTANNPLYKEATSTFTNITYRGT
Protocol: IN VITRO SOLID PHASE PURIFIED GLYCOPROTEIN IIB/IIIA BINDING ASSAY.
The plate is covered and incubated overnight at 4°C. The GPIIb/IIa solution is discarded and 150 µl of 5% BSA is added and incubated at RT for 1-3 h. The plate is washed extensively with modified Tyrodes buffer. Biotinylated fibrinogen (25 µl/well) at 2 x final concentration is added to the wells that contain the test compounds (25 µl/well). The plate is covered and incubated at RT for 2-4 h. Twenty minutes prior to incubation completion, one drop of Reagent A (Vecta Stain ABC Horse Radish Peroxidase kit, Vector Laboratories, Inc.) and one drop Reagent B are added with mixing to 5 mL modified Tyrodes buffer mix and let stand. The ligand solution is discarded and the plate washed (5 x 200 µl/well) with modified Tyrodes buffer. Vecta Stain HRP-Biotin-Avidin reagent (50 µl/well, as prepared above) is added and incubated at RT for 15 min. The Vecta Stain solution is discarded and the wells washed (5 x 200 µl/well) with modified Tyrodes buffer. Developing buffer (10 mL of 50 mM citrate/phosphate buffer @ pH 5.3, 6 mg o-phenylenediamine, 6 µl 30% H2O2; 50 µl/well) is added and incubated at RT for 3-5 min, and then 2N H2SO4 (50 µl/well) is added. The absorbance is read at 490 nm.

gel-filtered platelets = assay: In vitro inhibition of thrombin-induced gel-filtered platelet aggregation; assay type: cell-based; conditions: Homo sapiens; for inhibition at 50 µM: read-out: Platelet Aggregation % Inh. (50µM)
Protocol: IN VITRO INHIBITION OF THROMBIN-INDUCED GEL-FILTERED PLATELET AGGREGATION ASSAY.
The percentage of platelet aggregation is calculated as an increase in light transmission of compound-treated platelet concentrate vs. control-treated platelet concentrate. Human blood is obtained from drug free, normal donors into tubes containing 0.13M sodium citrate. Platelet rich plasma (PRP) is collected by centrifugation of whole blood at 200 x g for 10 min at 25°C. The PRP (5 mL) is gel filtered through Sepharose 2B (bed volume 50 mL), and the platelet count is adjusted to 2x10^7 platelets per sample. The following constituents are added to a siliconized cuvette: concentrated platelet filtrate and Tyrode's buffer (0.14M NaCl, 0.0027MKCl, 0.012M NaHCO3, 0.76 mM Na2HPO4, 0.0055M glucose, 2 mg/mL BSA and 5.0mM HEPES @ pH 7.4) in an amount equal to 350 µl, 50 µl of 20 mM calcium and 50 µl of the test compound. Aggregation is monitored in a BIODATA aggregometer for the 3 min following the addition of agonist (thrombin 50 µl of 1 unit/mL).

[1] = test system: collagen- or ADP-induced ex vivo platelet aggregation; assay: Ex vivo dog study (platelet aggregation, hemodynamics, bleeding time, coagulation, cell counts); assay type: in vivo, dogs
Protocol: Adult mongrel dogs (8-13 kg) were anesthetized with sodium pentobarbital (35 mg/kg, i.v.) and artificially respired. Arterial blood pressure and heart rate were measured using a Millar catheter-tip pressure transducer inserted in a femoral artery. Another Millar transducer was placed in the left ventricle (LV) via a carotid artery to measure LV end diastolic pressure and indices of myocardial contractility. A lead II electrocardiogram was recorded from limb electrodes. Catheters were placed in a femoral artery and vein to sample blood and infuse drugs, respectively. Responses were continuously monitored using a Modular Instruments data aquisition system.
Arterial blood samples (5-9 ml) were withdrawn into tubes containing 3.8% sodium citrate to prepare platelet rich plasma (PRP) and to determine effects on coagulation parameters: prothrombin time (PT) and activated partial thromboplastin time (APTT). Separate blood samples (1.5 ml) were withdrawn in EDTA to determine hematocrit and cell counts (platelets, RBC's and white cells). Template bleeding times were obtained from the buccal surface using a symplate incision devise and Whatman filter paper.
Aggregation of PRP was performed using a BioData aggregometer. Aggregation of whole blood used a Chronolog impedance aggregometer. PT and APTT were determined on either a BioData or ACL 3000+ coagulation analyser. Cells were counted with a Sysmex K-1000.
Compounds were solubilized in a small volume of dimethylformamide (DMF) and diluted with saline to a final concentration of 10% DMF. Compounds were administered by the intravenous route with a Harvard infusion pump. Doses was administered over a 15 min interval at a constant rate of 0.33 ml/min. Data were obtained after each dose and in 30 min intervals following the end of drug administration. Oral doses were administered as aqueous solutions via syringe.

thrombus formation = assay: Canine arteriovenous shunt model of thrombosis; assay type: in vivo
Protocol: For instance, compound 16 inhibits thrombus formation at 10, 30, and 100 µg/kg/min cumulative doses by iv infusion (75%, 37%, 12% of thrombus weight vs. vehicle control, respectively). Compound 18 inhibits thrombus formation at 3, 10, and 30 µg/kg/min cumulative doses by iv infusion (82%, 41%, 12% of thrombus weight vs. vehicle control, respectively).

[2] = 10 µg/kg/min cumulative dose by iv infusion
[3] = 30 µg/kg/min cumulative dose by iv infusion

Compound | IC50 (GPIIb/IIIa) | inhibition at 50 µM (GPIIb/IIIa) | IC50 (gel-filtered platelets) | inhibition at 50 µM (gel-filtered platelets) | Duration of >50% inhibition of collagen-induced ex vivo platelet aggregation ([1]; intravenous dosing 0.3 mpk) | Duration of >50% inhibition of collagen-induced ex vivo platelet aggregation ([1]; oral dosing 3 mpk) | further results
CN(CC(=O)c1ccc(OCC(=O)O)c(OCC(=O)O)c1)C(=O)c1ccc(C(=N)N)cc1 [Ro-438857] |  |  |  |  |  |  | IC50 (platelet aggregation): 94 nM
O=C(O)CC(NC(=O)C1CCCN(C(=O)CCC2CCNCC2)C1)c1ccc2c(c1)OCO2 [Compound 16, N-3-(4-Piperidinepropionyl)-R-(-)-nipecotyl-[(S)-3-amino-3-(3,4-methylenedioxyphenyl)]propionic acid] | 0.5 nM | 100% | 28 nM | 94% |  |  | Duration of >50% inhibition of collagen- or ADP-induced ex vivo platelet aggregation ([1]; intravenous dosing 0.1 mpk): 60 min; Duration of >50% inhibition of collagen- or ADP-induced ex vivo platelet aggregation ([1]; oral dosing 1 mpk): 60 min; Duration of >50% inhibition of collagen- or ADP-induced ex vivo platelet aggregation ([1]; oral dosing 3 mpk): >180 min; % of thrombus weight vs. vehicle control (thrombus formation; [2]): 75%; % of thrombus weight vs. vehicle control (thrombus formation; [3]): 37%; % of thrombus weight vs. vehicle control (thrombus formation; 100 µg/kg/min cumulative dose by iv infusion): 12%
Cc1ccc([C@H](CC(=O)O)NC(=O)[C@@H]2CCCN(C(=O)CCC3CCNCC3)C2)cn1 [Compound 31, N-3-(4-Piperidinepropionyl)-R-(-)nipecotyl-[(S)-3-amino-3-(6-methyl-3-pyridyl)]propionic acid] |  | 100% | 45 nM | 100% |  |  | Duration of >50% inhibition of collagen-induced ex vivo platelet aggregation ([1]; intravenous dosing 0.3 mpk, 0.3 mg/kg): 120 min and 60 min; Duration of >50% inhibition of collagen-induced ex vivo platelet aggregation ([1]; oral dosing 3 mpk, 3 mg/kg): >180 min and 180 min
CC(C)(C)C#CC(CC(=O)O)NC(=O)C1CCCN(C(=O)CCC2CCNCC2)C1 (single isomer, unassigned) [Compound 19] | 21 nM | 99% | 79 nM | 92.1% |  |  | Duration of >50% inhibition of collagen- or ADP-induced ex vivo platelet aggregation ([1]; intravenous dosing 1 mpk): 30 min; Duration of >50% inhibition of collagen- or ADP-induced ex vivo platelet aggregation ([1]; oral dosing 10 mpk): 90 min
CN1CCN(CCC(=O)N2CCCC(C(=O)NC(CC(=O)O)c3cnc4ccccc4c3)C2)CC1 (centres unmarked) [Compound 15, N-3-(4-N-Methyl-piperazinepropionyl)-nipecotyl-[3-amino-3-(3-quinolinyl)]propionic acid] | 9.1 nM | 100% | 1900 nM | 92.2% |  |  | Duration of >50% inhibition of collagen- or ADP-induced ex vivo platelet aggregation ([1]; intravenous dosing 1 mpk): 30 min; Duration of >50% inhibition of collagen- or ADP-induced ex vivo platelet aggregation ([1]; oral dosing 10 mpk): 120 min
O=C(O)C[C@H](NC(=O)[C@@H]1CCCN(C(=O)N2CCC(C3CCNCC3)CC2)C1)c1cccnc1 [Compound 27, N-[(4,4'-Bipiperidin-1-yl-)carbonyl]-R-(-)-nipecotyl-[(S)-3-amino-3-(3-pyridyl)] propionic acid] |  | 100% | 450 nM | 100% | 60 min | 120 min | 

More lines, main results first:

IC50 (GPIIb/IIIa) | inhibition at 50 µM (GPIIb/IIIa) | IC50 (gel-filtered platelets) | Compound | inhibition at 50 µM (gel-filtered platelets) | Duration of >50% inhibition of collagen-induced ex vivo platelet aggregation ([1]; intravenous dosing 0.3 mpk) | Duration of >50% inhibition of collagen-induced ex vivo platelet aggregation ([1]; oral dosing 3 mpk) | further results
 | 100% | 190 nM | O=C(NCCc1ccccc1)N[C@@H](CNC(=O)[C@@H]1CCCN(C(=O)CCC2CCNCC2)C1)C(=O)O [Compound 30, N-3-(4-Piperidinepropionyl)-R-(-)nipecotyl-[(S)-2-(2-phenethylamino)carbonylamino-3-amino]propionic acid] | 100% | 105 min | 180 min | 
 | 100% | 46 nM | COc1cccc(NC(=O)N[C@@H](CNC(=O)[C@@H]2CCCN(C(=O)CCC3CCNCC3)C2)C(=O)O)c1 [Compound 22, N-3-(4-Piperidinepropionyl)-R-(-)nipecotyl-[(S)-2-(3-methoxyanilino)carbonylamino-3-amino]propionic acid] | 94% | 180 min | 60 min | 
 | 100% | 7 nM | O=C(NC[C@H](NS(=O)(=O)Cc1ccccc1)C(=O)O)[C@@H]1CCCN(C(=O)CCC2CCNCC2)C1 [Compound 25, N-3-(4-Piperidinepropionyl)-R-(-)nipecotyl-[(S)-2-benzylsulfonylamino-3-amino]propionic acid] | 97% | 30 min | 60 min | 
 | 100% | 19 nM | O=C(O)C[C@H](NC(=O)[C@@H]1CCCN(C(=O)CCC2CCNCC2)C1)c1cnc2ccccc2c1 [Compound 18, N-3-(4-Piperidinepropionyl)-R-(-)-nipecotyl-[(S)-3-amino-3-(3-quinolinyl)]propionic acid] | 100% |  |  | Duration of >50% inhibition of collagen- or ADP-induced ex vivo platelet aggregation ([1]; intravenous dosing 0.1 mpk): 30 min; Duration of >50% inhibition of collagen- or ADP-induced ex vivo platelet aggregation ([1]; oral dosing 1 mpk): 150 min; % of thrombus weight vs. vehicle control (thrombus formation; 3 µg/kg/min cumulative dose by iv infusion): 82%; % of thrombus weight vs. vehicle control (thrombus formation; [2]): 41%; % of thrombus weight vs. vehicle control (thrombus formation; [3]): 12%
 | 100% | 60 nM | O=C(O)C[C@H](NC(=O)[C@@H]1CCCN(C(=O)CCC2CCNCC2)C1)c1cccnc1 [Compound 21, N-3-(4-Piperidinepropionyl)-R-(-)-nipecotyl-[(S)-3-amino-3-(3-pyridyl)] propionic acid] | 100% |  |  | Duration of >50% inhibition of collagen- or ADP-induced ex vivo platelet aggregation ([1]; intravenous dosing 0.3 mpk): 150 min; Duration of >50% inhibition of collagen- or ADP-induced ex vivo platelet aggregation ([1]; oral dosing 1 mpk): 180 min
0.4 nM | 100% | 18 nM | O=C(N[C@@H](CNC(=O)[C@@H]1CCCN(C(=O)CCC2CCNCC2)C1)C(=O)O)OCc1cccc(Cl)c1 [Compound 24, N-3-(4-Piperidinepropionyl)-R-(-)nipecotyl-[(S)-2-(3-chlorobenzyloxy)carbonylamino-3-amino]propionic acid] | 100% | 90 min | 120 min | 
 | 100% | 170 nM | O=C(Nc1ccc2ccccc2c1)N[C@@H](CNC(=O)[C@@H]1CCCN(C(=O)CCC2CCNCC2)C1)C(=O)O [Compound 28, N-3-(4-Piperidinepropionyl)-R-(-)nipecotyl-[(S)-2-(2-naphthylamino)carbonylamino-3-amino]propionic acid] | 100% |  | 120 min | 
